Measured values as given in publication PMC9101642 (Molecules, 2022).
Where two headings read alike, the source gives them in different places. Marks after values point to notes of the source that are not given here.

Tests used:
[1] = molecular target: ERβ (Homo sapiens, UniProt Q92731); assay: Fluorescence polarization competition assay: antagonistic potency and relative binding affinity; settings: log of % relative binding affinity, estradiol = 100%
[2] = test system: MCF-7 cell lines; assay: MTT antiproliferative assay; assay type: cell-based, human
[3] = test system: MDA-MB-231 cell lines; assay: MTT antiproliferative assay; assay type: cell-based, human
[4] = test system: Ishikawa endometrial adenocarcinoma cells; assay: Antiproliferative assay; assay type: cell-based; settings: Homo sapiens, growth inhibition
Text: As SERMs profile is often associated with the stimulation of endometrial cell proliferation and an increase in the incidence of endometrial cancer (EC), the herein compounds were therefore evaluated against Ishikawa endometrial adenocarcinoma cells (Table 8, Supplementary Material Figures […]). […] However, future experimental elaboration, currently beyond the authors' experimental facilities, is required to confirm compounds' promising profiles in terms of no EC induction.

[5] = test system: progesterone receptor (PR); assay: ERα functional antagonism cell assay (PR as biomarker) in MCF-7; assay type: cell-based; settings: Homo sapiens, MCF7; progesterone receptor as biomarker for ERα antagonism in MCF-7
[6] = test system: MCF-7 cells; assay: Cell cycle distribution by flow cytometry; assay type: cell-based, human; settings: 24 h
[7] = test system: MNU-induced breast cancer; assay: In vivo anticancer screening, MNU-induced mammary tumorigenesis; set-up: species or system female Wistar rats
[8] = Plasma protein binding determination; assay type: in vitro ADME, rat; settings: rat plasma, 37 °C, read-out: Rat PPB (%free)
Description: (§1) Rats were housed at 3 per cage and
(§2) The breast cancer was induced after the MNU (Sigma Aldrich CAS No. 684-93-5) administration. An aqueous solution at a concentration of 10 mg/ml was made by wetting the NMU powder with 3% acetic acid and then dissolving it in 0.9% NaCl solution; a fresh solution was prepared for each injection. Rats were given intraperitoneal (i.p.) 50 mg/kg of MNU on the 50th day of age. Animals were divided into different groups with six animals in each group. Group I (intact control) received 0.9% NaCl solution.
(§3) Groups II-IV and V-VII were introduced with MNU. Two weeks after MNU treatment, animals were treated orally with synthesized compounds and control substances (5 and 50 mg/kg, for groups II-IV and V-VII, respectively) by gavage once per day for six weeks. Animals in the intact control group and untreated MNU group were given vehicle (Tween 80) according to the experimental protocol. […]
(§4) Upon finishing the treatment with synthesized compounds, animals were sacrificed, and plasma, serum, and liver samples were collected. […]
Rat plasma containing either 5 or 50 mg/kg bwt of the tested compounds was incubated at 37°C upper reservoir of the washed Centri-free YM-30 ultrafiltration units (Millipore, Bedford, MA) and then centrifuged for 20 min at 2,000 g. Aliquots of the ultrafiltrates and unfiltered incubation mixtures were analyzed for the total protein concentration by the bicinchoninic acid assay for protein concentration (BCA assay; Pierce, Rockford, IL).

[9] = Serum biochemical markers after treatment of MNU-induced rats; assay type: in vivo, Wistar rats; set-up: TBC: unit not given here; settings: for ALP (A/L) / ALT (A/L) / AST (U/L) / γ-GT (U/L): serum; for TBC: total bilirubin content
Description: as §1, §2, §3
Upon finishing the treatment with synthesized compounds, animals were sacrificed, and plasma, serum, and liver samples were collected.
Measurement of Serum Biochemical Markers
The activities of AST and ALT on 340 nm, and ALP on 405 nm, were determined by UV-Vis kinetic methods according to recommendations of the Expert Panel of the IFCC (International Federation of Clinical Chemistry). The colorimetric methods were used for the determination of total bilirubin (Jendrassik-Grof 550 nm method). All kinetic and colorimetric measurements were recorded using a Perkin-Elmer Lambda 25 UV/Vis spectrophotometer. […]

[10] = Liver oxidative stress markers after treatment of MNU-induced rats; assay type: in vivo, Wistar rats; set-up: CAT: unit not given here; settings: liver; for CAT: catalase activity; for GSH: reduced glutathione; for SOD (U/mg): superoxide dismutase activity
Description: as §1, §2, §3, §4
Determination of Antioxidant Markers in Liver Homogenate
Rat liver samples were homogenized in phosphate buffer (5 mM, pH = 7.4) to give a 10% (w/v) liver homogenate and then centrifuged at 4000 rpm for 15 min at 4°C. The supernatant of liver homogenate was used for the estimation of reduced glutathione (GSH) and catalase (CAT) levels by the colorimetric method. The contents of malondialdehyde (MDA) in the supernatant of the liver homogenates were determined using 1,1,3,3-tetraethoxypropane as standard. Total protein concentrations were determined according to the method of Lowry using bovine serum albumin as […]

[11] = test system: MNU-induced breast cancer tissue; assay: Histopathology of breast sections; assay type: in vivo, Wistar rats
Text: The impact of selected leads on BC tissue was registered after their administration to experimental animals with MNU-induced BC (Figure 9 and Supplementary Material Figures S211–S218). […] In contrast to this, the administered leads were harmless in both concentrations, neutralizing the MNU-induced changes, judging by the lobuloalveolar units and cuboidal epithelial cells found (Figure 9C,D, and Supplementary Material Figures S214–S218). […]
Histopathological Studies
histopathological changes. […]

[12] = Lipophilicity by shake-flask method; settings: n-octanol/phosphate buffer, pH 7.4
[13] = Pharmacokinetics study, oral bioavailability; settings: rat
[14] = MTT antiproliferative assay (neutral control); settings: human, MRC-5 lung fibroblast cells, MRC-5 (IC50 nM)
[15] = molecular target: T1, ERα (Homo sapiens, UniProt P03372); assay: Fluorescence polarization competition assay: antagonistic potency and relative binding affinity; settings: virtually screened NCI hits, Table S17; read-out: ERα (IC50)
T1 sequence (P03372 1-595): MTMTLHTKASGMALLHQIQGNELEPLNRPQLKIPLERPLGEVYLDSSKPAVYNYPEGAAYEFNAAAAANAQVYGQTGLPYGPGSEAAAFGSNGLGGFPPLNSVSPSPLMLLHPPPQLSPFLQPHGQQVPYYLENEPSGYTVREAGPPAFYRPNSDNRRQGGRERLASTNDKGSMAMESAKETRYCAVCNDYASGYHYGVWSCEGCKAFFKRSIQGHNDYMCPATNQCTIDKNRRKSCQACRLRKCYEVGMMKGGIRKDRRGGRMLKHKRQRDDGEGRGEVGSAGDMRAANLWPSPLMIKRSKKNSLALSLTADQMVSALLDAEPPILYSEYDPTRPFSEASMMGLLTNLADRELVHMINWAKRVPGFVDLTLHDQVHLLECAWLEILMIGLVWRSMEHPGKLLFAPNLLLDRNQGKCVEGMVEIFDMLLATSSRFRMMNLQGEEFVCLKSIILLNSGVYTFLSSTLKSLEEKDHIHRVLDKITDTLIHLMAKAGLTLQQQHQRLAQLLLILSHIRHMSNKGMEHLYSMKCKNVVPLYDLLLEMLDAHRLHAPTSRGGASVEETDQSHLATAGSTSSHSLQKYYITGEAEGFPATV

[16] = test system: MRC-5 human lung fibroblast cell lines
[17] = dose 50 mg/kg (compounds per os after MNU; MNU alone i.p.)
[18] = MFD 1000 mg/kg (MNU: MTD 100 mg/kg bwt), 5 days
[19] = virtually screened NCI hits, Table S17, read-out: MCF-7 (IC50)
[20] = virtually screened NCI hits, Table S17, read-out: MDA-MB-231 (IC50)

ERβ, sequence (Q92731 whole entry): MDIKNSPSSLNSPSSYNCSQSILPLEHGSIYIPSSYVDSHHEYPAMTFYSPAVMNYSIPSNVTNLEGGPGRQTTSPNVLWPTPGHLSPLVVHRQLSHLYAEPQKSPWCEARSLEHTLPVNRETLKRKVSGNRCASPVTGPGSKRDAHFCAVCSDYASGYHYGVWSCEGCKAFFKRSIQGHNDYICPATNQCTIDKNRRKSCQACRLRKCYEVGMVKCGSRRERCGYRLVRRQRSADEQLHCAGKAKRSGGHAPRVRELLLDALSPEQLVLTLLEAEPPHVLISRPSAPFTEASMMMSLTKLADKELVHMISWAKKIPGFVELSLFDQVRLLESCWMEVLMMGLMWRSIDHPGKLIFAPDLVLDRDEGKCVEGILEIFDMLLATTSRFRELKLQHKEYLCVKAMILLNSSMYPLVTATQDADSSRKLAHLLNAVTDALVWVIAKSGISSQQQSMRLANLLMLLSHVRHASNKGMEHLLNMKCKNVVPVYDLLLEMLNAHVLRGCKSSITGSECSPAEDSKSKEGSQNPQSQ

CC/C(=C(\c1ccc(O)cc1)c1ccc(OCCN(C)C)cc1)c1ccccc1 [Compound 4-OHT., 4-hydroxytamoxifen, reference compound]
logRBA ERβ [1]: 1.39 ^†
IC50 ([2]; growth inhibition, 48 h, read-out: MCF-7 (IC50 nM)): 1.19 ± 0.57 nM
IC50 ([2]; references in Table S17, read-out: MCF-7 (IC50 nM)): 1.24 ± 0.32 nM
IC50 ([3]; growth inhibition, 48 h, read-out: MDA-MB-231 (IC50 nM)): 37.1 ± 0.45 nM
IC50 ([3]; references in Table S17, read-out: MDA-MB-231 (IC50 nM)): 37.04 ± 0.32 nM
IC50 [4]: 1.29 ± 0.43 nM
IC50 [5]: > 100 nM
Cell Cycle (%) G0/G1 ([6]; 0.1 nM): 57.22 ± 0.37 *^,†,§ %
Cell Cycle (%) G2/M ([6]; 0.1 nM): 24.02 ± 0.53 *^,,†§ %
Cell Cycle (%) S ([6]; 0.1 nM): 18.76 ± 0.41 *^,†,§ %
Cell Cycle (%) G0/G1 ([6]; 1 nM): 63.26 ± 0.41 *^,†,§ %
Cell Cycle (%) G2/M ([6]; 1 nM): 15.60 ± 0.15 *^,†,§ %
Cell Cycle (%) S ([6]; 1 nM): 21.14 ± 0.25 *^,†,§ %
Tumor Burden (week) ([7]; dose 5 mg/kg per os after MNU): 3.36 ± 0.38 *^,†,‖ week
Tumor Latency (week) ([7]; dose 5 mg/kg per os after MNU): 7 * week
Tumor Volume (mm^3) ([7]; dose 5 mg/kg per os after MNU): 1.88 ± 0.35 *^,†,‖ mm^3
Tumor Burden (week) [7, 17]: 3.22 ± 0.21 *^,†,┴ week
Tumor Latency (week) [7, 17]: 10 *^,† week
Tumor Volume (mm^3) [7, 17]: 1.35 ± 0.63 *^,†,┴ mm^3
fraction unbound at 5 mg/kg bwt ([8]; 5 mg/kg): 0.0185
fraction unbound at 50 mg/kg bwt ([8]; 50 mg/kg): 0.0252
ALP (A/L) ([9]; dose 5 mg/kg): 105.32±0.31 A/L
ALT (A/L) ([9]; dose 5 mg/kg): 52.44±0.31 A/L
AST (U/L) ([9]; dose 5 mg/kg): 53.76±0.32 U/L
γ-GT (U/L) ([9]; dose 5 mg/kg): 16.54 U/L
ALP (A/L) ([9]; dose 50 mg/kg): 131.43±0.43 A/L
ALT (A/L) ([9]; dose 50 mg/kg): 59.63±0.32 A/L
AST (U/L) ([9]; dose 50 mg/kg): 58.41±0.25 U/L
γ-GT (U/L) ([9]; dose 50 mg/kg): 18.47±0.45 U/L
TBC ([9]; dose 5 mg/kg): 23.56
TBC ([9]; dose 50 mg/kg): 25.57
CAT ([10]; dose 5 mg/kg): 13.56±0.88
CAT ([10]; dose 50 mg/kg): 20.46±0.76
TBARS ([10]; dose 50 mg/kg): 3.63 ± 0.32 nmol/mg
GSH ([10]; dose 5 mg/kg): 4.67 mg/g
GSH ([10]; dose 50 mg/kg): 3.33 mg/g
SOD (U/mg) ([10]; dose 5 mg/kg): 4.87±0.72 U/mg
SOD (U/mg) ([10]; dose 50 mg/kg): 7.46±0.34 U/mg
TP ([10]; total protein content, dose 50 mg/kg): 47.46 g/L
breast section histopathology ([11]; 5 mg/kg of bwt): necrosis (NEC)
breast section histopathology ([11]; 50 mg/kg of bwt): necrosis (NEC)
colon section histopathology [18]: no morphological changes
heart section histopathology [18]: no morphological changes
kidney section histopathology [18]: no morphological changes
liver section histopathology [18]: no morphological changes
lung section histopathology [18]: no morphological changes
spleen section histopathology [18]: no morphological changes
WL after MFD (day 1, mg) (average body weight at day 1, dosing at MFD): 305.84 ± 0.59 mg
WL after MFD (day 5, mg) (average body weight at day 5, dosing at MFD): 297.65 ± 0.39 mg
MFD (5 days) (maximum feasible (or tolerated) dose, 5 days per os, 5-1000 mg/kg bwt): 1000 mg/kg
logD at 30 min [12]: 3.64
BIO ([13]; oral 5 mg/kg): 88 ^‖
BIO ([13]; oral 50 mg/kg): 94
IC50 at 48 h ([14]; growth inhibition): > 10 nM
IC50 at 48 h ([14]; references in Table S17): > 100 nM

O=C(c1ccccc1)c1ccccc1C(=O)c1ccccc1 [Compound 6145]
IC50 [15]: 75.5 ± 6.46 µM
IC50 [2, 19]: 93400 ± 11400 nM
IC50 [3, 20]: > 100000 nM
IC50 [16]: > 100 µM

O=C(O)c1ccccc1-n1c2ccccc2c2ccccc21 [Compound 10211]
IC50 [15]: 66.9 ± 6.46 µM
IC50 [3, 20]: > 100000 nM
IC50 [16]: > 100 µM

c1ccc(-n2c3ccccc3c3ccccc32)cc1 [Compound 10416]
IC50 [15]: 74.8 ± 6.46 µM
IC50 [2, 19]: 89000 ± 11400 nM
IC50 [3, 20]: > 100000 nM
IC50 [16]: > 100 µM

O=c1c(-c2ccc(O)cc2)coc2cc(O)cc(O)c12 [Compound 36586]
IC50 [2, 19]: > 100000 nM
IC50 [3, 20]: > 100000 nM
IC50 [16]: > 100 µM

COc1ccc(C(C#N)=C(c2ccccc2)c2ccccc2)cc1 [Compound 101789]
IC50 [15]: 17.9 ± 1.34 µM
IC50 [2, 19]: 25900 ± 11400 nM
IC50 [3, 20]: > 100000 nM
IC50 [16]: 14.2 ± 11.4 µM
